# Source: article PMC7076857 (Toxins, 2020)
# Like-named read-outs stand apart in the source and are kept apart here. Numbered stars: 1 amine (or outer) side, 2 acyl side, 3 side chain; on linkers, the order of the positions; unused ones are H or OH. Bridge positions count the residues as written; N and C are the ends. Square brackets hold non-standard residues; d marks the D form. Peptide text beside a SMILES is read from it. Adda = CO[C@@H](Cc1ccccc1)[C@@H](C)/C=C(C)/C=C/[C@H](N[*:1])[C@H](C)C(=O)[*:2]; dAsp(3S-Me) = C[C@H](C(=O)[*:3])[C@@H](N[*:1])C(=O)[*:2]; d(γGlu) = O=C(O)[C@@H](CCC(=O)[*:2])N[*:1]; NMeDha = C=C(NC)C(=O)O
# Experiments:
# [1] = target: Protein phosphatase 2A (PP2A) (Homo sapiens, UniProt P67775); type: biochemical; details: for IC50: read-out: IC50 (PP2A inhibition)
# Protein phosphatase 2A (PP2A), sequence (P67775 whole entry, looked up): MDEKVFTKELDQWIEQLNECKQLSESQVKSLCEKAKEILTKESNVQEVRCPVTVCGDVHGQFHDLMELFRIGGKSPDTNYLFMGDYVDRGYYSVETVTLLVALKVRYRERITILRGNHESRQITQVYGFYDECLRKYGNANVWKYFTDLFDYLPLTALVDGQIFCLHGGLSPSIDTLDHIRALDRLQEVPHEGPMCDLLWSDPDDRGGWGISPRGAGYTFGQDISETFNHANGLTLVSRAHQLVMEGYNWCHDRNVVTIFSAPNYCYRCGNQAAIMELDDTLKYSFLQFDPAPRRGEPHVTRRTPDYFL
# PP2A = details: cited from earlier work
# Text: The positive and negative LC–HRMS spectra of 1 were consistent with a molecular formula of C55H77O13N7 which, together with the presence of a prominent [M + Na]^+ adduct ion, a weak neutral loss of m/z 134.0727, and the late retention time, were consistent with a non-Arg-containing MC. […] The negative ion MS/MS spectrum obtained from the FS/DIA (full scan/data indepe ...
Molecule,IC50 (PP2A inhibition) [1],Potency in PP2A inhibition assay relative to MC-LR (2) [1],IC50 [1],IC50 (PP2A),"IC50 relative to MC-LR (2), fold higher (PP2A; PP2A assay, MC-LF vs. MC-LR, ref 21 (Ikehara et al.))",IC50 (PP2A; ref 21 (Ikehara et al.))
"C=C1C(=O)N[C@H](CC(C)C)C(=O)N[C@@H](CC(C)C)C(=O)N[C@@H](C(=O)O)[C@H](C)C(=O)N[C@@H](Cc2ccc(O)cc2)C(=O)N[C@@H](/C=C/C(C)=C/[C@H](C)[C@H](Cc2ccccc2)OC)[C@H](C)C(=O)N[C@@H](C(=O)O)CCC(=O)N1C [Compound 1, [D-Leu^1]MC-LY] (Y[Adda][d(γGlu)][NMeDha][dL]L[dAsp(3S-Me)]-OH; lactam N-7)",0.80 ng/mL,essentially the same as for MC-LR (2),760 pM,–,–,–
"C=C1C(=O)N[C@H](C)C(=O)N[C@@H](CC(C)C)C(=O)N[C@@H](C(=O)O)[C@H](C)C(=O)N[C@@H](CCCNC(=N)N)C(=O)N[C@@H](/C=C/C(C)=C/[C@H](C)[C@H](Cc2ccccc2)OC)[C@H](C)C(=O)N[C@@H](C(=O)O)CCC(=O)N1C [Compound 2, MC-LR] (R[Adda][d(γGlu)][NMeDha][dA]L[dAsp(3S-Me)]-OH; lactam N-7)",0.62 ng/mL,–,620 pM,32 pM,–,–
MC-LF [Compound 9],–,–,–,–,3 fold,96 pM
